Data on 4 compounds can be found in patent EP0917465B1, “ANTIMALARIAL AND ANTI-BABESIOSIS AGENTS AND PHARMACEUTICAL COMPOSITIONS CONTAINING THE SAME AGENTS” (priority 1996, dated 1998).

Read-outs that look alike come from different tables or passages of the source.

The test system of data set [1] is Babesia Bovis, Babesia Canis. Briefly: In vitro anti-Babesia activity, (3H) hypoxanthine incorporation. It is filed as cell-based. The conditions noted are these: read-out: Activité/ Babesia à 10 millimole. The text has this: Le procédé de criblage d'activité anti-malaria, basé sur l'incorporation de l'(^3H) Hypoxanthine par le parasite, est utilisé pour tester l'activité anti-métabolique de tels composés sur Babesia Bovis, Babesia Canis. Une relation étroite est trouvée entre le taux d'incorporation de (^3H) Hypoxanthine dans une mesure standard et le pourcentage de cellules parasitées, déterminé par examen microscopique. Cette activité métabolique est quantifiée et évaluée dans le tableau ci-dessous par la cotation +++ pour les molécules affichant dans le test une inhibition de 50 % de l'incorporation de (^3H) Hypoxanthine (ID 50), ces molécules étant à une concentration inférieure ou égale à 0,01 Micromolaire. La cotation est de ++ pour la même activité à une concentration de 0,01 à 0.1 micromolaire et enfin de + pour une concentration inférieure ou égale à 1 Micromolaire.

Data set [2] can be described thus: Therapeutic index in infected mice: 4-day Peters test activity versus semi-chronic toxicity (DL 50). The conditions noted are these: mouse, in vivo, ratio of activity to toxicity under identical conditions, intraperitoneal or subcutaneous, twice a day for 4 days, read-out: Index thérapeutique. It is filed as in vivo, souris Swiss mâles. From the text:
(§1) Afin d'évaluer l'index thérapeutique des divers produits, on a mesuré l'activité de ceux-ci dans un test in vivo et comparé à la toxicité aiguë chez l'animal . Cette activité est mesurée suivant le test décrit par PETERS W. ( Chemotherapy and Drug résistance in Malaria, 1970). Un composé est administré pendant quatre jours consécutifs à des souris préalablement impaludées par Plasmodium vinckei, petteri, ou chabaudi, ledit composé étant dissous dans une solution de NaCI à 0.9 %. Les préparations sont ainsi administrées par voie intrapéritonéale ou par voie sous-cutanée à des souris Swiss mâles infectées par voie IV, avec Plasmodium petterei ou Plasmodium chabaudi (10^6 cellules infectées ). Le composé est administré deux fois par jour pendant 4 jours consécutifs, la première injection étant pratiquée 2 heures après l'infestation et la deuxième, 10 heures après. La parasitémie est déterminée par un frottis, le jour suivant la fin du traitement. La toxicité est mesurée in vivo selon la même méthode, les animaux ayant reçu dans les conditions d'administration ci-dessus, 2 injections par jour pendant 4 jours ( toxicité semi chronique). Les résultats sont exprimés sous forme de DL 50, soit la dose ayant entraîné la mort de 50% des animaux.
(§2) Les résultats des essais sont résumés dans le tableau I ci-après sous forme d'index thérapeutique, soit le rapport de l'activité à la toxicité mésurées dans des conditions identiques comme décrit ci-dessus.

The test system of another data set is Plasmodium falciparum. Briefly: In vitro antimalarial activity, (3H) hypoxanthine incorporation in infected human erythrocytes (Desjardins test). Format: cell-based. The note with it: Plasmodium falciparum, Erythrocyte, read-out: IC50 exprimée en micromoles. The text has this: L'activité antipaludéenne des dérivés selon les exemples précédents est testée sur l'humain infesté par Plasmodium falciparum. Le produit à tester est mis en contact avec les érythrocytes humains infectés pendant 24 heures. Un précurseur radioactif d'acides nucléiques l'Hypoxanthine (^3H) est ensuite ajouté. Le précurseur ne s'incorpore que dans les cellules infectées par un parasite en croissance, c'est à dire dans les cellules que la drogue n'aura pas affectées.
L'aptitude ou non à incorporer le précurseur reflète donc la viabilité des cellules impaludées. La durée des tests est de 60 à 70 heures ( test de DESJARDINS R.E. , CANFIELD C.J., HATNES J.D. et CHULAY J.D., Antimicrob. Agents Chemother. 1979, 16, p 710-718 ). Les résultats sont consignés dans le tableau I ci-après, sous forme de IC50 (ou DE50), soit la concentration de produit dans le milieu expérimental capable d'inhiber in vitro la croissance du parasite d'une valeur de 50%.

The test system of data set [3] is Plasmodium vinckei, petteri, ou chabaudi. Briefly: Therapeutic index in infected mice: 4-day Peters test activity versus semi-chronic toxicity (DL 50). It is filed as in vivo, souris Swiss mâles. The note with it: ratio of activity to toxicity under identical conditions, intraperitoneal or subcutaneous, twice a day for 4 days.
Source text: as §1, §2

The mark [4] stands for this setting: class of ID 50 for (3H) hypoxanthine incorporation.
Setting [5] is: concentration inhibiting in vitro parasite growth by 50 %, human erythrocytes infected with Plasmodium falciparum, 24 h contact, test lasts 60 to 70 h.

For the compound `C[N+]1(CCCCCCCCCCCCCCCC[N+]2(C)CCCC2CO)CCCC1CO` (stereo not drawn) [EXEMPLE 18, 1,1'-(1, 16-hexadecanediyl) bis (2-hydroxymethyl-1-methylpyrrolidinium) dibromure], the IC50 in data set [1] (setting [4]) is < 10 nM; in the data set with Plasmodium falciparum (setting [5]), 1 nM. Further, the selectivity ratio in data set [2] amounted to 22.
With `C[N+]1(CCCCCCCCCCCCCCCC[N+]2(C)CCCC(CO)C2)CCCC(CO)C1` (stereo not drawn) [EXEMPLE 20, 1,1'-(1,16-hexadecanediyl) bis (1-methyl-3hydroxy methyl piperidinium) dibromure], the IC50 in data set [1] (setting [4]) was < 10 nM; with Plasmodium falciparum (setting [5]) it was 0.3 nM. In data set [2], the selectivity ratio turned out to be 17.
`C=CC[N+](C)(C)CCCCCCCCCCCCCC[N+](C)(C)CC=C` [EXEMPLE 25, N,N'-di (2-propenyl)-N,N,N',N'-tetramethyl-1,14 tetradecane diaminium dibromure]: the IC50 was < 10 nM in data set [1] and 5 nM in the data set with Plasmodium falciparum. For the same compound, the “Index thérapeutique” value in data set [3] was 15.
The matching figures for `C#CCC[N+](C)(C)CCCCCCCCCCCCCC[N+](C)(C)CCC#C` [EXEMPLE 26, N,N'-di (3-butynyl)-N, N, N', N'-tetramethyl 1,14-tetradecanediaminium dibromure]: 10 to 100 nM, 40 nM and 45.
